Structures can show the parent of a compound that is named as a salt. Where two headings read alike, the source gives them in different places.
What was measured:
Format in all cases: cell-based, human
[1] = system: HI650 (Lung Adenocarcinoma); experiment: Cell viability analysis, lung cancer HI650; conditions: for viability at 10 µM: Homo sapiens
[2] = system: A549 (Lung Adenocarcinoma); experiment: Cell viability analysis, lung cancer A549; conditions: for viability at 10 µM: Homo sapiens
[3] = system: AGS (Gastric Adenocarcinoma); experiment: Cell viability analysis, gastric cancer AGS; conditions: for viability at 10 µM: Homo sapiens
[4] = system: MKN-45 (Gastric Adenocarcinoma); experiment: Cell viability analysis, gastric cancer MKN-45; conditions: for viability at 10 µM: Homo sapiens
[5] = system: HepG2 (Hepatocellular Carcinoma); experiment: Cell viability analysis, hepatic cancer HepG2; conditions: for viability at 10 µM: Homo sapiens
[6] = system: LoVo (Colorectal Adenocarcinoma); experiment: Cell viability analysis, colon cancer LoVo; conditions: for viability at 10 µM: Homo sapiens, LoVo
[7] = system: A375 (Amelanotic Melanoma); experiment: Cell viability analysis, skin cancer A375; conditions: for viability at 10 µM: Homo sapiens
[8] = system: HeLa (Cervix Adenocarcinoma); experiment: Cell viability analysis, cervical cancer HeLa; conditions: for viability at 10 µM: Homo sapiens, HeLa
[9] = system: PC3 (p53−) (Prostate Adenocarcinoma); experiment: Cell viability analysis, prostate cancer PC3; conditions: for viability at 10 µM: Homo sapiens
[10] = system: TSGH-8301 (Urinary Bladder Carcinoma); experiment: Cell viability analysis, bladder cancer TSGH-8301; conditions: for viability at 10 µM: Homo sapiens
[11] = system: MCF7 (Mammary Gland, Adenocarcinoma); experiment: Cell viability analysis, breast cancer MCF7; conditions: for viability at 10 µM: Homo sapiens
[12] = system: HL-60 (Acute Promyelocytic Leukemia); experiment: Cell viability analysis, leukemia HL-60; conditions: for viability at 10 µM: Homo sapiens
[13] = NCI-H1650, 72 h, drug 10 μM, 72 hours, WST-1, OD450 nm, read-out: cell viability (survival rate), H1650
[14] = A549, 72 h, drug 10 μM, 72 hours, WST-1, OD450 nm, read-out: cell viability (survival rate), A549
[15] = 72 h, drug 10 μM, 72 hours, WST-1, OD450 nm, read-out: cell viability (survival rate), AGS
[16] = MKN-45, 72 h, drug 10 μM, 72 hours, WST-1, OD450 nm, read-out: cell viability (survival rate), MKN-45
[17] = HepG2, 72 h, drug 10 μM, 72 hours, WST-1, OD450 nm, read-out: cell viability (survival rate), HepG2
[18] = 72 h, read-out: cell viability (survival rate), LoVo, drug 10 μM, 72 hours, WST-1, OD450 nm
[19] = A-375, 72 h, drug 10 μM, 72 hours, WST-1, OD450 nm, read-out: cell viability (survival rate), A375
[20] = 72 h, drug 10 μM, 72 hours, WST-1, OD450 nm, read-out: cell viability (survival rate), HeLa
[21] = 72 h, drug 10 μM, 72 hours, WST-1, OD450 nm, read-out: cell viability (survival rate), PC3
[22] = 72 h, drug 10 μM, 72 hours, WST-1, OD450 nm, read-out: cell viability (survival rate), TSGH
[23] = MCF7, 72 h, drug 10 μM, 72 hours, WST-1, OD450 nm, read-out: cell viability (survival rate), MCF7
[24] = HL-60, 72 h, drug 10 μM, 72 hours, WST-1, OD450 nm, read-out: cell viability (survival rate), HL-60
[25] = drug 10 μM, 72 hours, WST-1, OD450 nm

## CCOC(=O)CCC(=O)O[C@H]1[C@H](O[C@@H]2[C@@H](C)[C@H](O[C@H]3C[C@@](C)(OC)[C@@H](O)[C@H](C)O3)[C@@H](C)C(=O)O[C@H](CC)[C@@](C)(O)[C@H](O)[C@@H](C)C(=O)[C@H](C)C[C@@]2(C)O)O[C@H](C)C[C@@H]1N(C)C [Erythromycin Ethylsuccinate]
[1]; NCI-H1650, drug 10 μM, 72 hours, WST-1, OD450 nm, read-out: cell viability (survival rate), H1650
  viability at 10 µM: 83.8%
[2]; A549, drug 10 μM, 72 hours, WST-1, OD450 nm, read-out: cell viability (survival rate), A549
  viability at 10 µM: 90%
[3]; drug 10 μM, 72 hours, WST-1, OD450 nm, read-out: cell viability (survival rate), AGS
  viability at 10 µM: 111%
[4]; MKN-45, drug 10 μM, 72 hours, WST-1, OD450 nm, read-out: cell viability (survival rate), MKN-45
  viability at 10 µM: 129%
[5]; HepG2, drug 10 μM, 72 hours, WST-1, OD450 nm, read-out: cell viability (survival rate), HepG2
  viability at 10 µM: 97.1%
[6]; drug 10 μM, 72 hours, WST-1, OD450 nm, read-out: cell viability (survival rate), LoVo
  viability at 10 µM: 80%
[7]; A-375, drug 10 μM, 72 hours, WST-1, OD450 nm, read-out: cell viability (survival rate), A375
  viability at 10 µM: 75%
[8]; drug 10 μM, 72 hours, WST-1, OD450 nm, read-out: cell viability (survival rate), HeLa
  viability at 10 µM: 148%
[9]; drug 10 μM, 72 hours, WST-1, OD450 nm, read-out: cell viability (survival rate), PC3
  viability at 10 µM: 112%
[10]; drug 10 μM, 72 hours, WST-1, OD450 nm, read-out: cell viability (survival rate), TSGH
  viability at 10 µM: 125%
[11]; MCF7, drug 10 μM, 72 hours, WST-1, OD450 nm, read-out: cell viability (survival rate), MCF7
  viability at 10 µM: 88.2%
[12]; HL-60, drug 10 μM, 72 hours, WST-1, OD450 nm, read-out: cell viability (survival rate), HL-60
  viability at 10 µM: 83.6%

## Nc1nc(NC2CC2)c2ncn([C@H]3C=C[C@@H](CO)C3)c2n1 [Abacavir sulfate]
[1]; [13]
  viability at 10 µM: 67%
[2]; [14]
  viability at 10 µM: 87%
[3]; [15]
  viability at 10 µM: 97.1%
[4]; [16]
  viability at 10 µM: 94.6%
[5]; [17]
  viability at 10 µM: 82.6%
[6]; [18]
  viability at 10 µM: 100%
[7]; [19]
  viability at 10 µM: 57.2%
[8]; [20]
  viability at 10 µM: 84.2%
[9]; [21]
  viability at 10 µM: 76%
[10]; [22]
  viability at 10 µM: 148%
[11]; [23]
  viability at 10 µM: 79.6%
[12]; [24]
  viability at 10 µM: 108%

## CN(C)[C@@H]1C(O)=C(C(N)=O)C(=O)[C@@]2(O)C(O)=C3C(=O)c4c(O)cccc4[C@@](C)(O)[C@H]3[C@H](O)[C@@H]12 [Oxytetracycline (Terramycin), Oxytetracycline]
[1]; human, 72 h, 10 µM
  cell viability (survival rate), H1650: 70.1
[2]; human, 72 h, 10 µM
  cell viability (survival rate), A549: 42.3
[3]; human, 72 h, 10 µM
  cell viability (survival rate), AGS: 61.9
[4]; human, 72 h, 10 µM
  cell viability (survival rate), MKN-45: 56.7
[5]; human, 72 h, 10 µM
  cell viability (survival rate), HepG2: 88.4
[6]; human, 72 h, 10 µM
  cell viability (survival rate), LoVo: 86.6
[7]; human, 72 h, 10 µM
  cell viability (survival rate), A375: 51.2
[8]; human, 72 h, 10 µM
  cell viability (survival rate), HeLa: 51.2
[9]; human, 72 h, 10 µM
  cell viability (survival rate), PC3: 70.8
[10]; human, 72 h, 10 µM
  cell viability (survival rate), TSGH: 73.8
[11]; human, 72 h, 10 µM
  cell viability (survival rate), MCF7: 38.9
[12]; human, 72 h, 10 µM
  cell viability (survival rate), HL-60: 97.9

## NC(=O)c1cnccn1 [Pyrazinamide]
[1]; [13]
  viability at 10 µM: 79.1%
[2]; [14]
  viability at 10 µM: 33.9%
[3]; [15]
  viability at 10 µM: 74.9%
[4]; [16]
  viability at 10 µM: 53.6%
[5]; [17]
  viability at 10 µM: 88.1%
[6]; [18]
  viability at 10 µM: 56.9%
[7]; [19]
  viability at 10 µM: 58.6%
[8]; [20]
  viability at 10 µM: 54.3%
[9]; [21]
  viability at 10 µM: 100%
[10]; [22]
  viability at 10 µM: 88.3%
[11]; [23]
  viability at 10 µM: 40.9%
[12]; [24]
  viability at 10 µM: 106%

## CN(C/C=C/C#CC(C)(C)C)Cc1cccc2ccccc12 [Terbinafine (Lamisil, Terbinex), Terbinafine]
[1]; [13]
  viability at 10 µM: 104%
[2]; [14]
  viability at 10 µM: 115%
[3]; [15]
  viability at 10 µM: 137%
[4]; [16]
  viability at 10 µM: 143%
[5]; [17]
  viability at 10 µM: 98.3%
[6]; [18]
  viability at 10 µM: 94%
[7]; [19]
  viability at 10 µM: 99.7%
[8]; [20]
  viability at 10 µM: 65.2%
[9]; [21]
  viability at 10 µM: 140%
[10]; [22]
  viability at 10 µM: 109%
[11]; [23]
  viability at 10 µM: 104%
[12]; [24]
  viability at 10 µM: 95.2%

## CN(CCOc1ccc(CC2SC(=O)NC2=O)cc1)c1ccccn1 (stereo not drawn) [Rosiglitazone maleate]
[1]; [13]
  viability at 10 µM: 87.7%
[2]; [14]
  viability at 10 µM: 79.1%
[3]; [15]
  viability at 10 µM: 113%
[4]; [16]
  viability at 10 µM: 73.7%
[5]; [17]
  viability at 10 µM: 95.1%
[6]; [18]
  viability at 10 µM: 93.5%
[7]; [19]
  viability at 10 µM: 70.3%
[8]; [20]
  viability at 10 µM: 83.3%
[9]; [21]
  viability at 10 µM: 121%
[10]; [22]
  viability at 10 µM: 85.2%
[11]; [23]
  viability at 10 µM: 114%
[12]; [24]
  viability at 10 µM: 109%

## CN(C/C=C/C#CC(C)(C)C)Cc1cccc2ccccc12.Cl [Terbinafine HCl (Lamisil)]
[1]; [25]
  cell viability (survival rate), H1650: 40.6
[2]; [25]
  cell viability (survival rate), A549: 52.3
[3]; [25]
  cell viability (survival rate), AGS: 90.6
[4]; [25]
  cell viability (survival rate), MKN-45: 81.8
[5]; [25]
  cell viability (survival rate), HepG2: 91.1
[6]; [25]
  cell viability (survival rate), LoVo: 71.4
[7]; [25]
  cell viability (survival rate), A375: 92.5
[8]; [25]
  cell viability (survival rate), HeLa: 75.4
[9]; [25]
  cell viability (survival rate), PC3: 70.8
[10]; [25]
  cell viability (survival rate), TSGH: 50.6
[11]; [25]
  cell viability (survival rate), MCF7: 67.7
[12]; [25]
  cell viability (survival rate), HL-60: 86.5

## Clc1ccc(CSC(Cn2ccnc2)c2ccc(Cl)cc2Cl)cc1 (stereo not drawn) [Sulconazole Nitrate]
[1]; NCI-H1650, 72 h, read-out: cell viability (survival rate), H1650, drug 10 μM, 72 hours, WST-1, OD450 nm
  viability at 10 µM: 63.4%
[2]; A549, 72 h, read-out: cell viability (survival rate), A549, drug 10 μM, 72 hours, WST-1, OD450 nm
  viability at 10 µM: 50.7%
[3]; 72 h, read-out: cell viability (survival rate), AGS, drug 10 μM, 72 hours, WST-1, OD450 nm
  viability at 10 µM: 83.1%
[4]; MKN-45, 72 h, read-out: cell viability (survival rate), MKN-45, drug 10 μM, 72 hours, WST-1, OD450 nm
  viability at 10 µM: 53.2%
[5]; HepG2, 72 h, read-out: cell viability (survival rate), HepG2, drug 10 μM, 72 hours, WST-1, OD450 nm
  viability at 10 µM: 88.2%
[6]; [18]
  viability at 10 µM: 73.6%
[7]; A-375, 72 h, read-out: cell viability (survival rate), A375, drug 10 μM, 72 hours, WST-1, OD450 nm
  viability at 10 µM: 44.9%
[8]; 72 h, read-out: cell viability (survival rate), HeLa, drug 10 μM, 72 hours, WST-1, OD450 nm
  viability at 10 µM: 62.1%
[9]; 72 h, read-out: cell viability (survival rate), PC3, drug 10 μM, 72 hours, WST-1, OD450 nm
  viability at 10 µM: 65.7%
[10]; 72 h, read-out: cell viability (survival rate), TSGH, drug 10 μM, 72 hours, WST-1, OD450 nm
  viability at 10 µM: 55%
[11]; MCF7, 72 h, read-out: cell viability (survival rate), MCF7, drug 10 μM, 72 hours, WST-1, OD450 nm
  viability at 10 µM: 44.4%
[12]; HL-60, 72 h, read-out: cell viability (survival rate), HL-60, drug 10 μM, 72 hours, WST-1, OD450 nm
  viability at 10 µM: 64.1%

Source: US10105357B2, “Indication of antibiotic drugs for preparation of cancer inhibition pharmaceutical composition” (LAUNX BIOMEDICAL CO., LTD., priority 2014, dated 2018)
